From US9241487B2, “Pyrimidine derivatives and use thereof as pesticides” (BAYER INTELLECTUAL PROPERTY GMBH, priority 2010, dated 2016)

What was measured:
Alternaria solani = assay: Alternaria test (tomato)/protective; type: in vivo; conditions: 168 h, tomato plants, protective spray, evaluation 7 days after inoculation, read-out: Efficacy (%)
Procedure: Alternaria Test (Tomato)/Protective
(§1) Solvent: 49 parts by weight of N,N-dimethylformamide
(§2) Emulsifier: 1 part by weight of alkylaryl polyglycol ether
To produce a suitable preparation of active compound, 1 part by weight of active compound is mixed with the stated amounts of solvent and emulsifier, and the concentrate is diluted with water to the desired concentration. To test for protective activity, young tomato plants are sprayed with the preparation of active compound at the stated application rate. 1 day after the treatment, the plants are inoculated with a spore suspension of Alternaria solani and then remain at 100% rd. humidity and 22° C. for 24 h. The plants then remain at 96% rd. atmospheric humidity and a temperature of 20° C. Evaluation is carried out 7 days after the inoculation. 0% means an efficacy which corresponds to that of the control, whereas an efficacy of 100% means that no infection is observed.
(§3) In this test, the following compounds according to the invention show, at an active compound concentration of 500 ppm, an efficacy of 70% or more: […]

Leptosphaeria nodorum = Leptosphaeria nodorum test (wheat)/protective; type: in vivo; conditions: Parastagonospora nodorum, wheat plants, protective spray, evaluation 7-9 days after inoculation, read-out: Efficacy (%)
Procedure: Leptosphaeria nodorum Test (Wheat)/Protective
as §1, §2
To produce a suitable preparation of active compound, 1 part by weight of active compound is mixed with the stated amounts of solvent and emulsifier, and the concentrate is diluted with water to the desired concentration. To test for protective activity, young wheat plants are sprayed with the preparation of active compound at the stated application rate. 1 day after the treatment, the plants are inoculated with an aqueous spore suspension of Leptosphaeria nodorum and then remain at 100% relative atmospheric humidity and 22° C. for 48 h. The plants are then placed in a greenhouse at 90% relative atmospheric humidity and a temperature of 22° C. Evaluation is carried out 7-9 days after the inoculation. 0% means an efficacy which corresponds to that of the control, whereas an efficacy of 100% means that no infection is observed. In this test, the following compounds according to the invention show, at an active compound concentration of 500 ppm, an efficacy of 70% or more: […]

[1] = log P by HPLC on reversed-phase columns (C 18), EEC directive 79/831 Annex V.A8; type: physicochemical; conditions: reversed-phase HPLC columns (C 18); method [a]: LC-MS, acidic range pH 2.7, 0.1% aqueous formic acid/acetonitrile, gradient 10% to 95% acetonitrile
Procedure: The log P values were measured according to EEC directive 79/831 Annex V.A8 by HPLC (High Performance Liquid Chromatography) on reversed-phase columns (C 18), using the methods below: [a] The LC-MS determination in the acidic range is carried out at pH 2.7 with 0.1% aqueous formic acid and acetonitrile (contains 0.1% formic acid) as mobile phases; linear gradient from 10% acetonitrile to 95% acetonitrile.

Septoria tritici = Septoria tritici test (wheat)/protective; type: in vivo; conditions: Zymoseptoria tritici, 504 h, protective spray, evaluation 21 days after inoculation, read-out: Efficacy (%)
Procedure: Septoria tritici Test (Wheat)/Protective
(§4) Solvent: 49 parts by weight of N,N-dimethylacetamide
as §2
(§5) To produce a suitable preparation of active compound, 1 part by weight of active compound is mixed with the stated amounts of solvent and emulsifier, and the concentrate is diluted with water to the desired concentration. To test for protective activity, young plants are sprayed with the preparation of active compound at the stated application rate. After the spray coating has dried on, the plants are sprayed with a spore suspension of Septoria tritici. The plants remain in an incubation cabin at 20° C. and 100% relative atmospheric humidity for 48 hours. Thereafter, the plants are placed under a translucent hood at 15° C. and 100% relative air humidity for a further 60 hours. The plants are placed in a greenhouse at a temperature of about 15° C. and a relative atmospheric humidity of about 80%. Evaluation follows 21 days after the inoculation. 0% means an efficacy which corresponds to that of the control, whereas an efficacy of 100% means that no infection is observed.
as §3

Puccinia triticina = Puccinia triticina test (wheat)/protective; type: in vivo; conditions: 192 h, protective spray, evaluation 8 days after inoculation, read-out: Efficacy (%)
Procedure: Puccinia triticina Test (Wheat)/Protective
as §4, §2
as §5, with “sprayed with spores with a spore” for “sprayed with a spore”, “suspension of Puccinia triticina. The plants” for “suspension of Septoria tritici. The plants”, “48 hours. The plants” for “48 hours. Thereafter, the plants are placed under a translucent hood at 15° C. and 100% relative air humidity for a further 60 hours. The plants”, “of about 20° C. and” for “of about 15° C. and”, “Evaluation follows 8 days after” for “Evaluation follows 21 days after”
as §3

[2] = test system: Blumeria graminis fsp. hordei; assay: Blumeria graminis test (barley)/protective; type: in vivo; conditions: 168 h, protective spray, evaluation 7 days after inoculation, read-out: Efficacy (%)
Procedure: Blumeria graminis Test (Barley)/Protective
as §4, §2
To produce a suitable preparation of active compound, 1 part by weight of active compound is mixed with the stated amounts of solvent and emulsifier, and the concentrate is diluted with water to the desired concentration. To test for protective activity, young plants are sprayed with the preparation of active compound at the stated application rate. After the spray coating has dried on, the plants are dusted with spores of Blumeria graminis fsp. hordei. The plants are placed in a greenhouse at a temperature of about 18° C. and a relative air humidity of about 80% to promote the development of mildew pustules. Evaluation follows 7 days after the inoculation. 0% means an efficacy which corresponds to that of the control, whereas an efficacy of 100% means that no infection is observed.
as §3

Sphaerotheca fuliginea = assay: Sphaerotheca test (cucumber)/protective; type: in vivo; conditions: Podosphaera fuliginea, 168 h, cucumber plants, protective spray, evaluation 7 days after inoculation, read-out: Efficacy (%)
Procedure: Sphaerotheca Test (Cucumber)/Protective
as §1, §2
To produce a suitable preparation of active compound, 1 part by weight of active compound is mixed with the stated amounts of solvent and emulsifier, and the concentrate is diluted with water to the desired concentration. To test for protective activity, young cucumber plants are sprayed with the preparation of active compound at the stated application rate. 1 day after the treatment, the plants are inoculated with a spore suspension of Sphaerotheca fuliginea. The plants are then placed in a greenhouse at 70% relative air humidity and a temperature of 23° C. Evaluation follows 7 days after the inoculation. 0% means an efficacy which corresponds to that of the control, whereas an efficacy of 100% means that no infection is observed. In this test, the following compounds according to the invention show, at an active compound concentration of 500 ppm, an efficacy of 70% or more: […]

Venturia inaequalis = assay: Venturia test (apple)/protective; type: in vivo; conditions: 240 h, protective spray, evaluation 10 days after inoculation, read-out: Efficacy (%)
Procedure: Venturia Test (Apple)/Protective
(§6) Solvents: 24.5 parts by weight of acetone
(§7) • 24.5 parts by weight of dimethylacetamide Emulsifier: 1 part by weight of alkylaryl polyglycol ether
(§8) To produce a suitable preparation of active compound, 1 part by weight of active compound is mixed with the stated amounts of solvent and emulsifier, and the concentrate is diluted with water to the desired concentration. To test for protective activity, young plants are sprayed with the preparation of active compound at the stated application rate. After the spray coating has dried on, the plants are inoculated with an aqueous conidia suspension of the apple scab pathogen Venturia inaequalis and then remain in an incubation cabin at approx. 20° C. and 100% relative air humidity for 1 day. The plants are then placed in the greenhouse at about 21° C. and a relative atmospheric humidity of about 90%. Evaluation follows 10 days after the inoculation. 0% means an efficacy which corresponds to that of the control, whereas an efficacy of 100% means that no infection is observed.
(§9) In this test, the following compounds according to the invention show, at an active compound concentration of 100 ppm, an efficacy of 70% or more: […]

Uromyces appendiculatus = assay: Uromyces test (bean)/protective; type: in vivo; conditions: 240 h, protective spray, evaluation 10 days after inoculation, read-out: Efficacy (%)
Procedure: Uromyces Test (Bean)/Protective
as §6, §7
as §8, with “spore” for “conidia”, “bean rust” for “apple scab”, “Uromyces appendiculatus” for “Venturia inaequalis”, “about” for “approx.”, “atmospheric” for “air”
as §9

Row | chromatographic logP [1] | SMILES | pest or weed control at 500 ppm (Alternaria solani) [%] | pest or weed control at 500 ppm (Leptosphaeria nodorum) [%] | pest or weed control at 500 ppm (Septoria tritici) [%] | pest or weed control at 500 ppm (Puccinia triticina) [%] | pest or weed control at 500 ppm [2] [%] | pest or weed control at 500 ppm (Sphaerotheca fuliginea) [%] | pest or weed control at 100 ppm (Venturia inaequalis) [%] | pest or weed control at 100 ppm (Uromyces appendiculatus) [%]
1 | 3.3 | CC1(C(O)(COc2ccc(SC(F)(F)F)cc2)c2cncnc2)CC1 (stereo not drawn) [Compound 19] | 90 | 95 | 86 | 100 | 100 | 95 | – | –
2 | 3.59 | Cc1cc(OC(F)(F)F)ccc1OCC(O)(c1cncnc1)C(C)(C)C (stereo not drawn) [Compound 30] | 90 | 89 | 71 | 100 | 100 | 100 | 98 | 100
3 | 3.76 | CC(C)(C)C(O)(COc1ccc(SC(F)(F)F)c(Cl)c1)c1cncnc1 (stereo not drawn) [Compound 31] | 95 | 95 | – | – | – | 100 | 99 | 100
4 | 2.82 | CC(C)(C)C(O)(COc1ccc(S(=O)(=O)C(F)(F)F)cc1)c1cncnc1 (stereo not drawn) [Compound 33] | 89 | 94 | – | 100 | 100 | 95 | 99 | 100
